Like-named read-outs stand apart in the source and are kept apart here.

This assay concerns the target T1, α1A-ARs (Homo sapiens, UniProt P35348).
T1 sequence (P35348 1-466): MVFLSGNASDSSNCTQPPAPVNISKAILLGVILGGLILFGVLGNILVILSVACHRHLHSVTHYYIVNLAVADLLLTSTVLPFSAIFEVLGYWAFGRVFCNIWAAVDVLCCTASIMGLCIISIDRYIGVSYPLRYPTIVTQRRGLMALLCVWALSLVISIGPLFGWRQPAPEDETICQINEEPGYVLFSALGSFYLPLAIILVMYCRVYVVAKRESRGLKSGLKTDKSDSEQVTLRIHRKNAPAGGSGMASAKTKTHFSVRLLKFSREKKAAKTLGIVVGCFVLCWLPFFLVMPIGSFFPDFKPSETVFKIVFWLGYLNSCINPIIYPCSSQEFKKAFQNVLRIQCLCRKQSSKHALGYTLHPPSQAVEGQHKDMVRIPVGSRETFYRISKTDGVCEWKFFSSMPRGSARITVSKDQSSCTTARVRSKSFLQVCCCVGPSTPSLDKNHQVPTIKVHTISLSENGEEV
The assay can be described thus: Calcium flux assay (Calcium 6 dye) in cells expressing an α1-AR. The format is cell-based. As to conditions: for Emax: read-out: Average Emax (% epi); for EC50: read-out: Average pEC50 (converted). The text has this:
Calcium flux experimental design: alpha-1 adrenergic receptors (α1-ARs) couple to Gq proteins, which results in downstream activation of phospholipase C and release of calcium from intracellular stores. Intracellular calcium increase upon α1-AR activation can be detected by Calcium 6 dye.
Cell preparation: cells expressing an α1-AR were washed in warmed phosphate-buffered saline to remove medium and harvested using versene (Caisson Labs, catalog #EDL01).
Media was removed from cells by tapping plates upside-down on absorbent wipes, followed by 15 second upside-down 50×g centrifugation, again on absorbent wipes. 12 μL cell dye solution was added to cells using a reagent dispenser (Integra viaFILL) and cells were incubated for 90 minutes at 37° C., 5% CO2.
Compound preparation: candidate alpha-adrenergic compounds, dissolved to 10 mM in DMSO, were diluted in assay buffer (HBSS/HEPES containing 2 mM CaCl2) and 2 mM probenecid sodium salt). […] On all assay plates, vehicle (DMSO) and positive control (10 μM epinephrine) conditions were included on the plate, as well as a dose-response curve of epinephrine. […] 384 well compound plates were centrifuged briefly at 250×g, sealed (Axygen PCR-SP) and incubated at 37° C. until the 90 minute cell dye incubation was complete.
Calcium 6 stained cells and 384 well compound plates were loaded onto the Flexstation and incubated on the machine for 5 minutes before initiating the assay.
For each assay well, baseline Calcium 6 fluorescence was detected for 18 seconds prior to 12 μL compound addition at 12 μL per second. Changes in Calcium 6 fluorescence were detected for a further 22 seconds, for a total read time of 40 seconds. All detection was performed with medium gain sensitivity, bottom read, with 6 flashes per read.
Data analysis: for calcium flux, analysis of maximum change from baseline over the 40-second read time was determined using Softmax Pro and data was exported as raw text files. Potency estimates (EC50) were derived from dose response curves (maximum change from baseline versus the log concentration of test compound) fit by four-parameter nonlinear regression using Graphpad Prism. Efficacy was determined by comparing the magnitude of the test compound signal window (fitted curve max−min) with the signal window of the full agonist control, epinephrine. […] All experiments were repeated a minimum of three times, with the average (mean) potency and maximum effect relative to the within-plate full agonist dose-response comparator reported.
On the technique in general: A change in cytosolic calcium serves as a functional read-out for many receptors and channels.

Where [1] appears, read: α1A-AR calcium flux, mean of at least three experiments.
Where [2] appears, read: α1A-AR calcium flux, relative to full agonist epinephrine, mean of at least three experiments.

The term Emax denotes the greatest response seen or fitted, relative to the assay's reference. Consider `Cc1ccnc2c(Cl)nn(CC3=NCCN3)c12` [Compound 30], for which the Emax is over 61%. In addition, the EC50 under setting [1] was 10 to 977 nM.
Take `Clc1cccc2c(C3=CCOCC3)nn(CC3=NCCN3)c12` [Compound 54]: the EC50 under setting [1] was over 1000 nM. Also, the Emax under setting [2] fell in the range of 21 to 60%.
Regarding `FC(F)(F)c1nn(CC2=NCCN2)c2c(Cl)cccc12` [Compound 25], the Emax is 21 to 60%. Also, the EC50 under setting [1] is 10 to 977 nM.
With `Clc1cccc2c(N3CCCC3)nn(CC3=NCCN3)c12` [Compound 56], under setting [1], the EC50 was over 1000 nM. Besides, under setting [2], the Emax is under 20%.
Regarding `Cc1cccc2c(C(C)(F)F)nn(CC3=NCCN3)c12` [Compound 62], the Emax was over 61%. The EC50 under setting [1] was 10 to 977 nM.
Turning to `Fc1cccc2c(Cl)nn(CC3=NCCN3)c12` [Compound 26], the Emax is 21 to 60%. Besides, the EC50 under setting [1] is 10 to 977 nM.
`Clc1cccc2c(-c3ncco3)nn(CC3=NCCN3)c12` [Compound 55]: the EC50 under setting [1] is over 1000 nM. Under setting [2], the Emax was under 20%.
The like results for `Clc1nn(CC2=NCCN2)c2c(N3CCCC3)cccc12` [Compound 67] were, in that order, over 1000 nM and 21 to 60%.
Take `Clc1nn(CC2=NCCN2)c2c(-c3ccccn3)cccc12` [Compound 48]: the EC50 under setting [1] is 10 to 977 nM. Moreover, the Emax under setting [2] is 21 to 60%.
The like results for `Clc1cccc2c(-n3cccn3)nn(CC3=NCCN3)c12` [Compound 60] were, in that order, over 1000 nM and over 61%.
On to `N#Cc1cn(CC2=NCCN2)c2c(Cl)cccc12` [Compound 18], for which the Emax is over 61%. The EC50 under setting [1] was 10 to 977 nM.
As to `FC(F)c1cccc2c(Cl)nn(CC3=NCCN3)c12` [Compound 43], the maximal effect (Emax) was under 20%. In addition, under setting [1], the EC50 was over 1000 nM.
For `Clc1cccc2c(C3CC3)cn(CC3=NCCN3)c12` [Compound 3], in that order: 21 to 60% and under 9.77 nM.
For `FC(F)(F)c1cccc2c(Cl)nn(CC3=NCCN3)c12` [Compound 27], the Emax is over 61%. Under setting [1], the EC50 was 10 to 977 nM.
`Clc1cccc2c(-c3cccnc3)nn(CC3=NCCN3)c12` [Compound 14]: the EC50 under setting [1] was over 1000 nM. For the same compound, under setting [2], the Emax was under 20%.
The like results for `Clc1cccc2c(-c3ccon3)nn(CC3=NCCN3)c12` [Compound 63] were, in that order, 10 to 977 nM and over 61%.
The like results for `Cc1cc(Cl)cc2c(N3CCCC3)nn(CC3=NCCN3)c12` [Compound 66] were, in that order, 10 to 977 nM and 21 to 60%.
Turning to `CC(C)(C)c1nn(CC2=NCCN2)c2c(Cl)cccc12` [Compound 16], the Emax was under 20%. The EC50 under setting [1] is over 1000 nM.
Take `Cc1cc(Cl)cc2c(N3CCCCC3)nn(CC3=NCCN3)c12` [Compound 69]: under setting [1], the EC50 was over 1000 nM. For the same compound, the maximal effect (Emax) under setting [2] was under 20%.
For the compound `Clc1cccc2cnn(CC3=NCCN3)c12` [Compound 15], the Emax was under 20%. In addition, under setting [1], the EC50 is over 1000 nM.
As for `Clc1nn(CC2=NCCN2)c2c(-c3ccccc3)cccc12` [Compound 34], the EC50 under setting [1] was 10 to 977 nM. The Emax under setting [2] lay within 21 to 60%.
For `FC(F)(F)c1cc(Cl)cc2c(Cl)nn(CC3=NCCN3)c12` [Compound 64], in that order: over 1000 nM and under 20%.
Regarding `CC(C)c1cccc2c(Cl)nn(CC3=NCCN3)c12` [Compound 47], the Emax was over 61%. Also, the EC50 under setting [1] was 10 to 977 nM.
On to `CC(F)(F)c1cc(Cl)cc2c(Cl)nn(CC3=NCCN3)c12` [Compound 72], for which, under setting [1], the EC50 was 10 to 977 nM. Under setting [2], the Emax was over 61%.
Regarding `Clc1ccc2c(c1)c(Cl)nn2CC1=NCCN1` [Compound 31], the Emax was in the range of 21 to 60%. Moreover, the EC50 under setting [1] is over 1000 nM.
Take `FC(F)(F)Cc1cccc2c(Cl)nn(CC3=NCCN3)c12` [Compound 53]: the EC50 under setting [1] was over 1000 nM. The Emax under setting [2] was 21 to 60%.
Take `Clc1cccc2c(-c3ccncc3)nn(CC3=NCCN3)c12` [Compound 49]: under setting [1], the EC50 is 10 to 977 nM. For the same compound, under setting [2], the Emax lay in the range of 21 to 60%.
Consider `Clc1nn(CC2=NCCN2)c2c(Cl)cccc12` [Compound 20], for which the Emax was over 61%. For the same compound, under setting [1], the EC50 was 10 to 977 nM.
For `Fc1ccc2c(Cl)nn(CC3=NCCN3)c2c1Cl` [Compound 24], the Emax is over 61%. Also, under setting [1], the EC50 is 10 to 977 nM.
Take `FC(F)(F)Oc1cccc2c(Cl)nn(CC3=NCCN3)c12` [Compound 37]: the EC50 under setting [1] is 10 to 977 nM. Under setting [2], the Emax was over 61%.
In the case of `Clc1cccc2c(-n3cccc3)nn(CC3=NCCN3)c12` [Compound 58], the EC50 under setting [1] was 10 to 977 nM. The Emax under setting [2] was over 61%.
Regarding `Cc1cccc2c(C(F)(F)F)nn(CC3=NCCN3)c12` [Compound 61], the Emax was under 20%. For the same compound, under setting [1], the EC50 is over 1000 nM.
For `Fc1cc(F)c2c(c1)c(C1CC1)cn2CC1=NCCN1` [Compound 11], in that order: over 61% and under 9.77 nM.
Consider `Clc1nn(CC2=NCCN2)c2c(N3CCCCC3)cccc12` [Compound 70], for which, under setting [1], the EC50 is 10 to 977 nM. Besides, the Emax under setting [2] was in the range of 21 to 60%.
For the compound `Fc1cc(Cl)c2c(c1)c(C1CC1)cn2CC1=NCCN1` [Compound 8], the Emax was under 20%. For the same compound, the EC50 under setting [1] was 10 to 977 nM.
With `Cc1cc(F)cc2c(Cl)nn(CC3=NCCN3)c12` [Compound 50], the Emax was under 20%. In addition, the EC50 under setting [1] is over 1000 nM.
Take `COc1ccc(C(C)C)c2ccn(CC3=NCCN3)c12` [Compound 7]: the Emax was over 61%. Further, the EC50 under setting [1] is 10 to 977 nM.
Take `CC(F)(F)c1cccc2c(N3CCCC3)nn(CC3=NCCN3)c12` [Compound 74]: the EC50 under setting [1] is over 1000 nM. Further, the Emax under setting [2] was in the range of 21 to 60%.
For the compound `Cc1cc2cccc(Cl)c2n1CC1=NCCN1` [Compound 19], the Emax was under 20%. Under setting [1], the EC50 was over 1000 nM.
For `CC(C)c1ccc(Cl)c2c1c(S(C)(=O)=O)cn2CC1=NCCN1` [Compound 9], the EC50 under setting [1] was over 1000 nM. Besides, under setting [2], the Emax is under 20%.
Consider `Clc1nn(CC2=NCCN2)c2c(-n3cccc3)cccc12` [Compound 33], for which the EC50 under setting [1] was 10 to 977 nM. For the same compound, the Emax under setting [2] was over 61%.
For `FC(F)(F)c1cccc2c(N3CCCC3)nn(CC3=NCCN3)c12` [Compound 71], in that order: over 1000 nM and under 20%.
As to `Clc1cccc2c1c(Cl)nn2CC1=NCCN1` [Compound 45], the Emax is under 20%. Besides, the EC50 under setting [1] was over 1000 nM.
Regarding `Cc1cc(C(F)(F)F)cc2c(Cl)nn(CC3=NCCN3)c12` [Compound 73], the EC50 under setting [1] was 10 to 977 nM. The Emax under setting [2] is over 61%.
Regarding `Clc1ccc2c(Cl)nn(CC3=NCCN3)c2c1` [Compound 32], the Emax is over 61%. Under setting [1], the EC50 is 10 to 977 nM.
The like results for `CC(F)(F)c1cccc2c(Cl)nn(CC3=NCCN3)c12` [Compound 39] were, in that order, 21 to 60% and 10 to 977 nM.
Turning to `Cc1cc(F)cc2c(N3CCCC3)nn(CC3=NCCN3)c12` [Compound 77], the EC50 under setting [1] is 10 to 977 nM. Under setting [2], the Emax was in the range of 21 to 60%.
For `Cc1cn(CC2=NCCN2)c2c(Cl)cccc12` [Compound 17], the Emax was over 61%. Moreover, under setting [1], the EC50 is under 9.77 nM.
With `Fc1cc(Cl)c2c(c1)c(Cl)nn2CC1=NCCN1` [Compound 23], the maximal effect (Emax) was over 61%. For the same compound, the EC50 under setting [1] was 10 to 977 nM.

The values above are taken from US20250188060A1, “ALPHA1A-ADRENERGIC RECEPTOR AGONISTS AND METHODS OF USE” (CuraSen Therapeutics, Inc., priority 2022, published 2025).
